Assay results: ChEMBL document CHEMBL3046612, “Design, multicomponent synthesis, and bioactivities of novel neonicotinoid analogues with 1,4-dihydropyridine scaffold” (2010)

What was measured:
Aphis craccivora [1] = assay: Insecticidal activity against Aphis craccivora (cowpea aphid) in tender shoots of soybean assessed as mortality at 500 mg/L measured after 1 days (reference value: 4.3%); assay type: functional; conditions: 24 h
Aphis craccivora [2] = assay: Insecticidal activity against Aphis craccivora (cowpea aphid) in tender shoots of soybean assessed as mortality measured after 1 days; assay type: functional; conditions: 24 h

Structure (SMILES)	mortality at 500 µg/mL (Aphis craccivora [1]) [%]	LC50 (Aphis craccivora [2]) [µM]
O=[N+]([O-])/N=C1\NCCN1Cc1ccc(Cl)nc1 [IMIDACLOPRID]	100	–
N#CC1=C(N)N2CCN(Cc3ccc(Cl)nc3)C2=C([N+](=O)[O-])C1c1cccc(C#N)c1 (stereo unspecified)	80	–
N#CC1=C(N)N2CCN(Cc3ccc(Cl)nc3)C2=C([N+](=O)[O-])C1c1ccc(Cl)cc1F (stereo unspecified)	88	–
N#CC1=C(N)N2CCN(Cc3ccc(Cl)nc3)C2=C([N+](=O)[O-])C1c1cccc(Br)c1 (stereo unspecified)	91.8	197
N#CC1=C(N)N2CCN(Cc3ccc(Cl)nc3)C2=C([N+](=O)[O-])C1c1ccc(Br)cc1Cl (stereo unspecified)	85	–
N#CC1=C(N)N2CCN(Cc3ccc(Cl)nc3)C2=C([N+](=O)[O-])C1c1ccc([N+](=O)[O-])cc1 (stereo unspecified)	77	–
N#CC1=C(N)N2CCN(Cc3ccc(Cl)nc3)C2=C([N+](=O)[O-])C1c1ccc(C#N)cc1 (stereo unspecified)	93.7	175
N#CC1=C(N)N2CCN(Cc3ccc(Cl)nc3)C2=C([N+](=O)[O-])C1c1ccc(Cl)cc1Cl (stereo unspecified)	93.4	133
N#CC1=C(N)N2CCN(Cc3ccc(Cl)nc3)C2=C([N+](=O)[O-])C1c1cccc([N+](=O)[O-])c1 (stereo unspecified)	91.9	79
N#CC1=C(N)N2CCN(Cc3ccc(Cl)nc3)C2=C([N+](=O)[O-])C1c1ccc(OC(F)(F)F)cc1 (stereo unspecified)	100	98
Cc1cc(C2C(C#N)=C(N)N3CCN(Cc4ccc(Cl)nc4)C3=C2[N+](=O)[O-])c(Br)cc1F (stereo unspecified)	75.9	–
COc1ccc(C2C(C#N)=C(N)N3CCN(Cc4ccc(Cl)nc4)C3=C2[N+](=O)[O-])cc1 (stereo unspecified)	100	9.75
N#CC1=C(N)N2CCN(Cc3ccc(Cl)nc3)C2=C([N+](=O)[O-])C1c1ccccc1 (stereo unspecified)	83.1	–
Cc1c(F)cccc1C1C(C#N)=C(N)N2CCN(Cc3ccc(Cl)nc3)C2=C1[N+](=O)[O-] (stereo unspecified)	100	3.45
Cc1ccc(F)cc1C1C(C#N)=C(N)N2CCN(Cc3ccc(Cl)nc3)C2=C1[N+](=O)[O-] (stereo unspecified)	100	96.1
N#CC1=C(N)N2CCN(Cc3ccc(Cl)nc3)C2=C([N+](=O)[O-])C1c1ccc(Cl)cc1C(F)(F)F (stereo unspecified)	100	61.6
Cc1ccc(C2C(C#N)=C(N)N3CCN(Cc4ccc(Cl)nc4)C3=C2[N+](=O)[O-])c(F)c1 (stereo unspecified)	72.9	–
